Measurements reported in US8501715B2, “Oxidized lipids and uses thereof in the treatment of inflammatory diseases and disorders” (Vascular Biogenics Ltd., priority 2003, dated 2013).
“Also recorded” adds a separate entry of the source. Read-outs that look alike come from different tables or passages of the source.

How the values were obtained:
TNF-α [1] = settings: splenic CD11b cells, IFN-γ over night, PGN 24 hours
Method: (§2) Isolation of Monocytes/Macrophages: Spleens were removed and a cell suspension was prepared. Erythrocytes were depleted using red blood cell (RBC) lysis buffer (Beit Haemek, Israel). Cells were washed in phosphate buffer saline (PBS) (Beit Haemek, Israel), and incubated in 4° C. for 15 min in buffer containing PBS and 0.5% bovine serum albumin (BSA) with mouse CD11b microbeads (Miltenyi biotech, Bergisch Gladbach, Germany). Cells were then washed, resuspended in the same buffer and positively selected on a Mini-Macs separation unit through a MS column (Miltenyi biotech).
(§3) In order to assess CI-201 effect on p40 production by macrophages, splenic CD11b cells were incubated over night with IFN-γ and then activated for 24 hours with PGN in the presence CI-201.

IL-10 and IFN-γ = settings: oral 1 mg/dose 5 times every other day
Method: The effects of CI-201 treatment on cytokine expression in the targeted organ—the aorta, as well as in the spleen, liver, kidneys and small intestine were evaluated using RT-PCR as described hereinabove. Apo-E KO mice were orally administered with 1 mg/dose CI-201 or with 0.2 ml/mouse PBS, 5 times every other day. The expression of the anti-inflammatory cytokine IL-10 and the pro-inflammatory cytokine IFN-γ were determined 8 weeks after final oral administration.

Apo-E KO mice = assay: Assessment of atherosclerosis: lesion area in the aortic sinus; assay type: in vivo, mouse
IL-23p19 = settings: CD11c+ BMDC's, CI-201 20 μg/ml, PGN 10 μg/ml
IFN-γ [2] = assay: RT-PCR cytokine expression in the aorta: IFN-γ; assay type: in vivo; settings: oral 1 mg/mouse 5 times every other day, 8 weeks after final administration
Method: (§1) The effect of ALLE, CI-201, its corresponding acetal derivatives Et-acetal and Me-acetal (Compounds IIa and IIb, FIG. 10) and oxLDL on cytokine expression in the target organ—the aorta—was evaluated using RT-PCR as described hereinabove. […] Oral administrations took place 5 times every other day.

IL-10 [3] = settings: oral 0.1 μg/mouse 5 times every other day
Method: (§4) Inflammatory Markers Evaluation in Serum: Serum was separated by centrifuge and stored at −70° C. Analysis of inflammatory markers was performed by ELISA (IL-10; R&D and SAA; BIOSOURCE).
(§5) Thus, Apo-E KO mice were orally administered with 0.1 μg/mouse CI-201 or 0.2 ml/mouse PBS, 5 times every other day. Mice serum was collected before treatment (day 0), at the end of the treatment (two weeks) and two weeks thereafter (4 weeks) and the level of the inflammation markers IL-10 and Serum Amyloide A (SAA) were evaluated.

p40 [4] = settings: PBMC's from two donors, IFN-γ over-night, PGN 24 hours; all tested concentrations
Method: (§6) PBMC's from healthy donors were incubated over-night with IFN-γ and then activated with PGN in the presence of CI-201 for another 24 hours. Supernatants were then evaluated for p40 and TNF-α production.

IL12p40 [5] = settings: human Mo-DC's, PGN 10 μg/ml, 24 hours
Method: (§7) Supernatants were collected 24 hours following activation and the levels of p40 (FIG. 30a) and TNF-α (FIG. 30b) were measured by ELISA.
(§8) Isolation of human monocyte derived dendritic cells (Mo-DC's): PBMCs were isolated from heparinized whole blood from healthy donors by Ficoll-Paque (Amersham, Uppsala, Sweden). Cells were incubated at 4° C. for 15 minutes in buffer containing PBS, 0.5% bovine serum albumin (BSA) and 2 mM EDTA with human CD14 microbeads (Miltenyi biotech) washed and positively selected on a Midi-Macs separation unit through LS column. The resulting cells were counted washed and seeded (10^6/ml) in medium containing RPMI-1640, L-glutamine, 3-mercaptoethanol, 10% FCS, antibiotics (Penicillin, Streptomycin), non essential amino acids, sodium pyruvate, 40 ng/ml of human GM-CSF and 20 ng/ml of human IL-4 (R&D systems, Minneapolis, Minn.). Medium was replaced every other day and cells were used for subsequent experiments on days 5-6 post culturing. Cell purity was >75% as determined by FACS for CD11c.
(§9) Cytokine analysis: For the detection of cytokine production, supernatants from BMDC's and Mo-DC's following a 24 hour treatment were tested with Duoset ELISA kits for mouse IL12p40, TNF-α, IL-6 and human IL12p40 and TNF-α (R&D systems, Minneapolis, Minn.) respectively.

IL-6 = settings: BMDC's, PGN activation
Method: BMDC's were incubated for 1 hour with different CI-201 concentrations prior to activation with 10 μg/ml of PGN. Supernatant were collected 24 hours following activation and the levels of IL-6 (FIG. 3M) and IL-1 (FIG. 3N) were measured.
as §9

TNF-α [6] = settings: IFN-γ, PGN
Method: as §6

TNF-α [7] = settings: BMDC's, activators other than PolyI:C
Method: Isolation of bone-marrow derived dendritic cells (BMDC's): Bone-marrow was flushed out with cold RPMI-1640 from mice femur and tibia. […] Cells were then washed, resuspended in the same buffer, and depleted from B and T cells on a Midi-Macs separation unit through a LD or LS column (Miltenyi biotech). The depleted cells were then counted, washed and seeded (10^6/ml) in medium containing RPMI-1640, L-glutamine, β-mercaptoethanol, 10% FCS, antibiotics (Penicillin, Streptomycin) and 20 ng/ml of mouse GM-CSF (Peprotech, Rehovot, Israel). Medium was replaced every other day and cells were used for subsequent experiments on days 5-6 post culturing.
as §9

CD11c+BMDC's = settings: 3 hours PGN 10 μg/ml with CI-201 20 μg/ml
Method: Gene Chip analysis: Mouse BMDC's were enriched for CD11c+DC (>90%) with mouse CD11c microbeads from 5-6 days cultures over MS or LS columns (Miltenyi biotech). […] RNA was prepared and used to generate cRNA. Preparation of cRNA, hybridization and scanning was done in the Weizmann Institute of Science (Rehovot, Israel) on the mouse genome 430A 2.0 array (Affymetrix, Santa Clara, Calif.).

TNF-α [8] = settings: human Mo-DC's, PGN 10 μg/ml, 24 hours
Method: as §7, §8, §9

IFN-γ [9] = settings: in vivo oral treatment (0.1 μg/feed C57BL/6, ovalbumin; 10 and 100 μg/mouse/feed SJL, PLP 139-151); ex vivo restimulation
Method: (FIG. 26a) C57BL/6 mice were fed in alternate days from day −10 to day +10 with CI-201 (0.1 μg/feed) of PBS. On day 0, mice were immunized with ovalbumin in CFA. On day 10, draining lymph nodes were excised and cells stimulated with ovalbumin. Cells were expanded for a week and then re-stimulated for 4 hours with plate bound anti-CD3 and anti-CD28 (5 μg/ml) in the presence of monensin (2 μM) and tested for cytokine expression by intracellular staining. Results are gated on CD4+ T cells. […] Lymph nodes were collected 10 days later, stimulated ex vivo with 10 μg/ml of PLP 139-151 peptide or 0.5 μg/ml of anti CD3 and three days later supernatants were collected and tested by ELISA for cytokine production.
Lymph nodes were collected 10 days later, stimulated ex vivo with 10 μg/ml of PLP 139-151 peptide or 0.5 μg/ml of anti CD3 and three days later cytokine production from the supernatant was measured using the Duoset ELISA kit (R&D systems, Minneapolis, Minn.).
Ex-vivo ELISA and Intracellular staining: For intracellular staining, C57BL/6 were orally administered with CI-201 (0.1 μg/mouse/feed) or PBS as control, 5 times, once every other day. Dosing volume was 0.2 ml. Subsequently, mice were immunized subcutaneously in two flanks with 200 μl of emulsion containing 200 μg of ovalbumin and MT (100 μg). […]

Lewis rats = assay: Adjuvant-induced arthritis (AIA) in Lewis rats; assay type: in vivo, rat
Serum Amyloide A (SAA) = assay: Inflammatory markers in serum (ELISA): SAA; assay type: in vivo; settings: oral 0.1 μg/mouse 5 times every other day; day 0, 2 and 4 weeks; control group dramatically increased
Method: as §4, §5

IL-1 = settings: BMDC's, PGN activation
Method: Supernatant were collected 24 hours following activation and the levels of IL-6 (FIG. 3M) and IL-1 (FIG. 3N) were measured.
Isolation of bone-marrow derived dendritic cells (BMDC's): Bone-marrow was flushed out with cold RPMI-1640 from mice femur and tibia. A cell suspension was prepared and erythrocytes were removed using red blood cell (RBC) lysis buffer (Beit Haemek, Israel). […] Cells were then washed, resuspended in the same buffer, and depleted from B and T cells on a Midi-Macs separation unit through a LD or LS column (Miltenyi biotech). The depleted cells were then counted, washed and seeded (10^6/ml) in medium containing RPMI-1640, L-glutamine, β-mercaptoethanol, 10% FCS, antibiotics (Penicillin, Streptomycin) and 20 ng/ml of mouse GM-CSF (Peprotech, Rehovot, Israel). Medium was replaced every other day and cells were used for subsequent experiments on days 5-6 post culturing.

p40 [10] = settings: splenic CD11b cells, IFN-γ over night, PGN 24 hours
Method: as §2, §3

IL-12p35 = assay: Q-PCR RNA expression in CD11c+ BMDC's: IL-12p35; settings: CI-201 20 μg/ml, PGN 10 μg/ml
IL-12 = assay: RT-PCR cytokine expression in the aorta: IL-12; assay type: in vivo; settings: oral 1 mg/mouse 5 times every other day, 8 weeks after final administration
Method: as §1

IL-12/IL-23p40 = assay: Q-PCR RNA expression in CD11c+ BMDC's: IL-12/IL-23p40; settings: CI-201 20 μg/ml, PGN 10 μg/ml, first 6 hours following activation, normalized to GAPDH
IL12p40 [11] = assay: p40 production by activated BMDC's (ELISA); assay type: cell-based, mouse
IL-10 [12] = assay: RT-PCR cytokine expression in the aorta: IL-10; assay type: in vivo, mouse
Method: as §1

IL-27p28 = assay: Q-PCR RNA expression in CD11c+ BMDC's: IL-27p28; settings: CI-201 20 μg/ml, PGN 10 μg/ml

CCCCCCCCCCCCCCCCOC[C@H](COP(=O)([O-])OCC[N+](C)(C)C)OCCCCC(=O)O [CI-201, 1-Hexadecyl-2-(5′-Carboxy-butyl)-sn-glycero-3-phosphocholine]
TNF-α production levels versus control cells (TNF-α [1]): no major differences
cytokine expression in the spleen and in the small intestine versus PBS (IL-10 and IFN-γ; 8 weeks after final administration): no differences
cytokine expression in the liver and in kidney (IL-10 and IFN-γ; data not shown): No change
Aortic Sinus Lesion (Apo-E KO mice; oral 0.1 μg/dose, 3 monthly sets of 5 administrations, 12 weeks after first feeding, 26-28 weeks old mice): 228,000±25,772 μm^2
decrease in atherosclerotic lesion in the aortic sinus as compared with the PBS treated group (Apo-E KO mice; oral 0.1 μg/dose, P<0.05): 92%
Aortic Sinus Lesion (Apo-E KO mice; oral 1 μg/dose, 3 monthly sets of 5 administrations, 12 weeks after first feeding, 26-28 weeks old mice): 295,729 ± 20,909 μm^2
Aortic Sinus Lesion (Apo-E KO mice; oral 10 μg/dose, 3 monthly sets of 5 administrations, 12 weeks after first feeding, 26-28 weeks old mice): 272,483 ± 20,505 μm^2
decrease of the aortic sinus lesion versus PBS control (Apo-E KO mice; oral 0.025 mg/dose, 8 weeks, P=0.051): 33%
most effective dose for inhibiting disease progression (Apo-E KO mice; oral 0.1, 1 or 10 μg/dose tested): 0.1 μg/dose
disease progression (lesion area versus base line group) (Apo-E KO mice; oral 0.1, 1 or 10 μg/dose, 3 monthly sets): completely inhibited disease progression; also recorded: inhibited the disease progression
atherogenesis in Apo-E KO mice, oral administration (summary of earlier examples) (Apo-E KO mice; oral administration): substantially inhibited atherogenesis
Aortic Sinus Lesion (Apo-E KO mice; oral gavage 0.025 mg/dose every day (5 times a week) for 8 weeks, male 12 weeks old mice): 125,192±19,824 μm^2
RNA expression level of p19 (IL-23p19): substantial inhibition
IFN-γ expression in the aorta versus PBS (IFN-γ [2]): reduced expression level
IL-10 serum level (IL-10 [3]; 2 weeks after end of treatment (4 weeks)): decay
IL-10 serum level (IL-10 [3]; end of the treatment (2 weeks)): substantial increase
p40 production (p40 [4]): close to complete inhibition
p40 production (IL12p40 [5]): can inhibit p40 production
production of IL-6 (IL-6): did not impair
TNF-α production (TNF-α [6]; PBMC's from donor I): did not impair
TNF-α levels (TNF-α [6]; PBMC's from donor II): modest reduction
production of TNF-α (TNF-α [7]): did not impair
p19 expression (gene chip) (CD11c+BMDC's): reduced p19 expression
p40 RNA expression (gene chip) (CD11c+BMDC's): reduced RNA expression
ability to produce TNF-α (TNF-α [8]): without altering
IFN-γ production by CD4+ T cells (IFN-γ [9]): reduced IFN-γ production
arthritis development (paw swelling, arthritis score, percentage of rats with symptoms) (Lewis rats; continuous treatment, high dose: 5 feedings before induction, then 3 times a week for about 30 days): substantially attenuated arthritis development
paw swelling versus PBS-pretreated rats (Lewis rats; oral pre-treatment 4.0 mg/kg 5 times every other day before AIA induction): significant decrease
mobility (Lewis rats; oral pre-treatment with the higher dose (4 mg/kg) before AIA induction): close to that of normal rats
SAA serum levels (Serum Amyloide A (SAA)): no alterations
production of IL-1 (IL-1): did not impair
p40 production levels versus control cells (p40 [10]): no major differences
RNA expression level of p35 (IL-12p35): did not modify
IL-12 expression in the aorta versus PBS (IL-12): reduced levels
p40 RNA expression, inhibition compared to control (IL-12/IL-23p40): more than two folds
p40 production (IL12p40 [11]; BMDC's, 1 hour pre-incubation, activation with PGN (TLR 2/6) 10 μg/ml, 24 hours): significant and dose dependent reduction
p40 secretion (IL12p40 [11]; BMDC's, CpG (TLR9) engagement, only 20 μg/ml of CI-201): significantly inhibit
p40 secretion (IL12p40 [11]; BMDC's, Fc-CD40L activation 1 μg/ml): significant reduction
p40 production (IL12p40 [11]; BMDC's, PolyI:C (TLR3) activation 25 μg/ml): significant and dose dependent p40 inhibition
p40 levels (IL12p40 [11]; BMDC's, activation with LPS (TLR4) 100 ng/ml, intermediated concentrations of CI-201): significant, but small reduction
p40 production (IL12p40 [11]; BMDC's, activation with Pam3CSK4 (TLR1/2) 300 ng/ml, 24 hours): significant p40 inhibition
concentration giving maximal inhibition of p40 production (highest concentration used) (IL12p40 [11]; activated DC's in vitro): 20 µg/mL
IL-10 expression in the aorta, higher than control group (IL-10 [12]; oral 0.025 mg/dose, 8 weeks): 40%
IL-10 expression in the aorta versus PBS (IL-10 [12]; oral 1 mg/mouse 5 times every other day, 8 weeks after final administration): elevated levels
RNA expression level of p28 (IL-27p28): did not modify
